biological target: unphosphorylated-BTK kinase domain (UP-BTK), GST-tagged human BTK (389-659aa) (Homo sapiens (Human), UniProt Q06187); assay: BTK kinase Lanthascreen binding assay; conditions: Lanthascreen tracer competition, 60 minutes incubation; pIC50 = negative log of the IC50 in molar
In short: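 Lanthascreen competition binding; test compound vs fluorescent tracer on unphosphorylated BTK. Output: pIC50 (−log IC50, M).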

Chain of unphosphorylated-BTK kinase domain (UP-BTK), GST-tagged human BTK (389-659aa) (Q06187 389-659): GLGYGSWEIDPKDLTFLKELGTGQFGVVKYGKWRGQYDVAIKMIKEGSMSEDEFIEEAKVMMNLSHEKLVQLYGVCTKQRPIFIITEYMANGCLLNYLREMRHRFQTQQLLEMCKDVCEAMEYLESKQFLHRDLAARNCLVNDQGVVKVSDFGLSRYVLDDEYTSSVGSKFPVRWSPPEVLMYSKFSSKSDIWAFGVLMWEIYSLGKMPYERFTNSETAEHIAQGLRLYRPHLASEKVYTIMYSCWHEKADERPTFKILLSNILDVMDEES

Row | Compound | BTK_I_binding pIC50
1 | C=CC(=O)N1CCC[C@@H](NC(=O)c2sc3nccc4c3c2NC(=O)N4c2ncc(Oc3ccccc3)cn2)C1 [Example 665, (R)—N-(1-Acryloylpiperidin-3-yl)-4-oxo-5-(5-phenoxypyrimidin-2-yl)-4,5-dihydro-3H-1-thia-3,5,8-triazaacenaphthylene-2-carboxamide] | 7.8
2 | CNCC(=O)N1CCC[C@@H](NC(=O)c2sc3nccc4c3c2NC(=O)N4c2ccnc(-c3ccccc3)c2)C1 [Example 714, (R)—N-(1-(Methylglycyl)piperidin-3-yl)-4-oxo-5-(2-phenylpyridin-4-yl)-4,5-dihydro-3H-1-thia-3,5,8-triazaacenaphthylene-2-carboxamide] | 6.5
3 | C=CS(=O)(=O)N1CC[C@@H](NC(=O)c2sc3nccc4c3c2NC(=O)N4c2ccc(Oc3ccccc3)cc2C)C1 (single isomer, unassigned) [Example 834, (R)-5-(*S)-(2-Meth-4-phenoxyphenyl)-4-oxo-N-(1-(vinylsulfonyl)pyrrolidin-3-yl)-4,5-dihydro-3H-1-thia-3,5,8-triazaacenaphthylene-2-carboxamide] | 8.0
4 | Cc1cc(Oc2ccccc2)ccc1N1C(=O)Nc2c(NC(=O)C3CCCN(C(=O)CC#N)C3)sc3nccc1c23 (centres unmarked) [Example 817, 1-(2-Cyanoacetyl)-N-(5-(2-methyl-4-phenoxyphenyl)-4-oxo-4,5-dihydro-3H-1-thia-3,5,8-triazaacenaphthylen-2-yl)piperidine-3-carboxamide] | 6.0
5 | O=C(N[C@@H]1CCCNC1)c1sc2nccc3c2c1NC(=O)N3c1cccc(OC2CCC2)c1 [Example 621, (R)-5-(3-Cyclobutoxyphenyl)-4-oxo-N-(piperidin-3-yl)-4,5-dihydro-3H-1-thia-3,5,8-triazaacenaphthylene-2-carboxamide] | <6
6 | O=C(N[C@@H]1CCCNC1)c1sc2nccc3c2c1NC(=O)N3c1cccc(-c2cccc(F)c2F)c1 [Example 706, (R)-5-(2′,3′-Difluoro-[1,1′-biphenyl]-3-yl)-4-oxo-N-(piperidin-3-yl)-4,5-dihydro-3H-1-thia-3,5,8-triazaacenaphthylene-2-carboxamide] | 7.7

same assay, conditions: Lanthascreen tracer competition, 60 minutes incubation; pIC50 = negative log of the IC50 in molar; read-out: BTK_I_binding pIC50 (converted)

Row | Compound | IC50 [µM]
7 | Cc1cc(Oc2ccccc2)ccc1N1C(=O)Nc2c(NC(=O)C3CCCN(C)C3)sc3nccc1c23 (centres unmarked) [Example 823, 1-Methyl-N-(5-(2-methyl-4-phenoxyphenyl)-4-oxo-4,5-dihydro-3H-1-thia-3,5,8-triazaacenaphthylen-2-yl)piperidine-3-carboxamide] | 3.16

same assay, conditions: pIC50 = negative log of the IC50 in molar; 60 minutes incubation, 50 nM Tracer 236

Row | Compound | BTK_I_binding pIC50
8 | Cc1cc(Oc2ccccc2)ccc1N1C(=O)Nc2c(C(=O)NC3COCCN(C)C3)sc3nccc1c23 (centres unmarked) [Example 129, N-(4-Methyl-1,4-oxazepan-6-yl)-5-(2-methyl-4-phenoxyphenyl)-4-oxo-4,5-dihydro-3H-1-thia-3,5,8-triazaacenaphthylene-2-carboxamide] | 6.9
9 | Cc1cc(Oc2ccccc2)ccc1N1C(=O)Nc2c(C(=O)NC[C@@H]3CCCN3C)sc3nccc1c23 [Example 265, (S)-5-(2-Methyl-4-phenoxyphenyl)-N-((1-methylpyrrolidin-2-yl)methyl)-4-oxo-4,5-dihydro-3H-1-thia-3,5,8-triazaacenaphthylene-2-carboxamide] | 6.4
10 | CO[C@@H]1CN(C)C[C@@H]1NC(=O)c1sc2nccc3c2c1NC(=O)N3c1ccc(Oc2ccccc2)cc1C [Example 208, N-((3S,4R)-4-Methoxy-1-methylpyrrolidin-3-yl)-5-(2-methyl-4-phenoxyphenyl)-4-oxo-4,5-dihydro-3H-1-thia-3,5,8-triazaacenaphthylene-2-carboxamide] | 6.8
11 | CN1CCC[C@@H](NC(=O)c2sc3nccc4c3c2NC(=O)N4c2ccc(Oc3ccccc3)cc2F)C1 [Example 135, (R)-5-(2-Fluoro-4-phenoxyphenyl)-N-(1-methylpiperidin-3-yl)-4-oxo-4,5-dihydro-3H-1-thia-3,5,8-triazaacenaphthylene-2-carboxamide] | 7.2
12 | Cc1cc(Oc2ccccc2)ccc1N1C(=O)Nc2c(C(=O)N[C@H]3CN(C)C[C@H]3F)sc3nccc1c23 [Example 132, N-((3S,4R)-4-Fluoro-1-methylpyrrolidin-3-yl)-5-(2-methyl-4-phenoxyphenyl)-4-oxo-4,5-dihydro-3H-1-thia-3,5,8-triazaacenaphthylene-2-carboxamide] | 7.2
13 | Cc1cc(Oc2ccccc2)ccc1N1C(=O)Nc2c(C(=O)N[C@@H]3CCCN(C(=O)/C=C/C4CC4)C3)sc3nccc1c23 [Example 199, (R,E)-N-(1-(3-Cyclopropylacryloyl)piperidin-3-yl)-5-(2-methyl-4-phenoxyphenyl)-4-oxo-4,5-dihydro-3H-1-thia-3,5,8-triazaacenaphthylene-2-carboxamide] | 6.6
14 | Cc1cc(Oc2ccccc2)ccc1N1C(=O)Nc2c(C(=O)N[C@H]3CNC[C@@H](F)C3)sc3nccc1c23 [Example 167, N-((3R,5S)-5-fluoropiperidin-3-yl)-5-(2-methyl-4-phenoxyphenyl)-4-oxo-4,5-dihydro-3H-1-thia-3,5,8-triazaacenaphthylene-2-carboxamide] | 7.0
15 | CCC(=O)N1CC[C@@H](NC(=O)c2sc3nccc4c3c2NC(=O)N4c2ccc(Oc3ccccc3)cc2C)C1 (single isomer, unassigned) [Example 84, (R)-5-(*S)-(2-Methyl-4-phenoxyphenyl)-4-oxo-N-(1-propionylpyrrolidin-3-yl)-4,5-dihydro-3H-1-thia-3,5,8-triazaacenaphthylene-2-carboxamide] | 7.5

same assay, conditions: unphosphorylated-BTK kinase domain, 50 nM Tracer 236, 60 minutes; pIC50 = negative log of the IC50 in molar

Row | Compound | BTK_I_binding pIC50
16 | Cc1cc(C(C)C)ccc1N1C(=O)Nc2c(C(=O)N[C@@H]3CCCN(C)C3)sc3nccc1c23 [Example 447, (R)-5-(4-Isopropyl-2-methylphenyl)-N-(1-methylpiperidin-3-yl)-4-oxo-4,5-dihydro-3H-1-thia-3,5,8-triazaacenaphthylene-2-carboxamide] | 5.6
17 | Cc1cc(Oc2ccccc2)ccc1N1C(=O)Nc2c(C(=O)N[C@@H]3CCCN(C(=O)/C=C/CS(C)(=O)=O)C3)sc3nccc1c23 [Example 374, (R,E)-5-(2-Methyl-4-phenoxyphenyl)-N-(1-(4-(methylsulfonyl)but-2-enoyl)piperidin-3-yl)-4-oxo-4,5-dihydro-3H-1-thia-3,5,8-triazaacenaphthylene-2-carboxamide] | 7.0
18 | C=CC(=O)N1CC[C@@H](N(C)C(=O)c2sc3nccc4c3c2NC(=O)N4c2ccc(Oc3ccccc3)cc2C)C1 (single isomer, unassigned) [Example 442, (R)—N-(1-Acryloylpyrrolidin-3-yl)-N-methyl-5-(*R)-(2-methyl-4-phenoxyphenyl)-4-oxo-4,5-dihydro-3H-1-thia-3,5,8-triazaacenaphthylene-2-carboxamide] | 6.9
19 | CN(C)CC(=O)N1CCC[C@@H](NC(=O)c2sc3nccc4c3c2NC(=O)N4c2ccc(Oc3ccccc3)c(Cl)c2)C1 [Example 572, (R)-5-(3-Chloro-4-phenoxyphenyl)-N-(1-(2-(dimethylamino)acetyl)piperidin-3-yl)-4-oxo-4,5-dihydro-3H-1-thia-3,5,8-triazaacenaphthylene-2-carboxamide] | 7.1
20 | Cc1cc(N2C(=O)Nc3c(C(=O)N[C@@H]4CCCNC4)sc4nccc2c34)ccc1Oc1ccccc1 [Example 583, (R)-5-(3-Methyl-4-phenoxyphenyl)-4-oxo-N-(piperidin-3-yl)-4,5-dihydro-3H-1-thia-3,5,8-triazaacenaphthylene-2-carboxamide] | 6.7
21 | C=CC(=O)N1CCC[C@@H](NC(=O)c2sc3nccc4c3c2NC(=O)N4c2ccc(-c3ccccc3)cc2)C1 [Example 423, (R)-5-([1,1′-Biphenyl]-4-yl)-N-(1-acryloylpiperidin-3-yl)-4-oxo-4,5-dihydro-3H-1-thia-3,5,8-triazaacenaphthylene-2-carboxamide] | 6.3
22 | C=CC(=O)N1CCC[C@@H](NC(=O)c2sc3nccc4c3c2NC(=O)N4c2ccc(C(C)C)cc2C)C1 [Example 444, (R)—N-(1-Acryloylpiperidin-3-yl)-5-(4-isopropyl-2-methylphenyl)-4-oxo-4,5-dihydro-3H-1-thia-3,5,8-triazaacenaphthylene-2-carboxamide] | 7.2
23 | C/C=C\C(=O)N1CCC[C@@H](NC(=O)c2sc3nccc4c3c2NC(=O)N4c2ccc(Oc3ccccc3)cc2C)C1 (single isomer, unassigned) [Example 475, (R,*Z)—N-(1-(But-2-enoyl)piperidin-3-yl)-5-(*R)-(2-methyl-4-phenoxyphenyl)-4-oxo-4,5-dihydro-3H-1-thia-3,5,8-triazaacenaphthylene-2-carboxamide] | 6.1
24 | O=C(N[C@@H]1CCCNC1)c1sc2nccc3c2c1NC(=O)N3c1ccn(Cc2ccccc2)n1 [Example 431, (R)-5-(1-Benzyl-1H-pyrazol-3-yl)-4-oxo-N-(piperidin-3-yl)-4,5-dihydro-3H-1-thia-3,5,8-triazaacenaphthylene-2-carboxamide] | <5
25 | C=CC(=O)N1CCC[C@@H](NC(=O)c2sc3nccc4c3c2NC(=O)N4c2ccc(-c3cccs3)cc2)C1 [Example 397, (R)—N-(1-Acryloylpiperidin-3-yl)-4-oxo-5-(4-(thiophen-2-yl)phenyl)-4,5-dihydro-3H-1-thia-3,5,8-triazaacenaphthylene-2-carboxamide] | 6.4
26 | Cc1cc(OC2CCC2)ccc1N1C(=O)Nc2c(C(=O)N[C@@H]3CCCN(C)C3)sc3nccc1c23 [Example 284, (R)-5-(4-Cyclobutoxy-2-methylphenyl)-N-(1-methylpiperidin-3-yl)-4-oxo-4,5-dihydro-3H-1-thia-3,5,8-triazaacenaphthylene-2-carboxamide] | 6.2

Reference: patent US10800792B2, “Inhibitors of Bruton's tyrosine kinase and method of their use” (JANSSEN PHARMACEUTICA NV, priority 2015, dated 2020)
